Experimental data reported in publication PMC7824571, “Probing the Effects of the FGFR-Inhibitor Derazantinib on Vascular Development in Zebrafish Embryos” (Pharmaceuticals, 2020).
“Also recorded” adds a separate entry of the source.

Columns and labels:
[1] = test system: developing vasculature in the zebrafish embryo; test: Vascular development in zebrafish embryos (confocal / time-lapse imaging of transgenic lines); conditions: 0.1–0.3 μM in swimming water
[2] = Binding to mouse plasma protein
[3] = in vitro; conditions: zebrafish, zebrafish embryo homogenate (1:20 in MilliQ water)
[4] = test system: zebrafish embryos; test: Zebrafish embryo lethality; conditions: above a concentration of 1 μM
Description: Similarly, DMSO solutions (100 μM) of infigratinib (BGJ398) or vatalanib (PTK/ZK) were diluted in fish water to achieve concentrations of 0.1–0.3 μM. The compounds were added to embryo fish water E3 (5 mM NaCl, 0.17 mM KCl, 0.33 mM CaCl2, 0.33 mM MgSO4, pH 7.0) at 8–10 hpf onwards, before the onset of endothelial cell specification, as previously described.

[5] = %PPB-Mouse (plasma protein binding)

## CCN1CCN(c2ccc(Nc3cc(N(C)C(=O)Nc4c(Cl)c(OC)cc(OC)c4Cl)ncn3)cc2)CC1 [infigratinib]
[1]
  Anastomosis: Moderate/strong defects
  Blood flow: mild impediment of blood flow
  Cell cycle: inhibited cell cycle progression
  Cell junctions: Mild defects
  ISV sprouting angiogenesis: did not have any effect
  ISV-Aorta Connections: Moderate defects
  Lumenization: Mild defects
[1]; listed as Infigratinib
  Blood flow: Mild defects
  Cell cycle: Moderate defects
  ISV sprouting angiogenesis: No defects
[2]; %Fu-PPB, free unbound
  fraction unbound: 0.013
[2]; [5]
  fraction unbound: 0.013
[3]
  fraction unbound at 20 h, 1 μM: 0.0497 ± 0.0082

## Clc1ccc(Nc2nnc(Cc3ccncc3)c3ccccc23)cc1 [vatalanib]
[1]
  ISV sprouting angiogenesis: dramatically reduced
  ISV-Aorta Connections: No defects
  Lumenization: Moderate defects
[1]; listed as Vatalanib
  Blood flow: dramatic defects in blood vessel function; also recorded: Moderate defects
  ISV sprouting angiogenesis: Strong defects
[2]; %Fu-PPB, free unbound
  fraction unbound: 0.041 ± 0.0018
[2]; [5]
  fraction unbound: 0.0413
[4]
  embryo lethality: 80–90%
[3]
  fraction unbound at 20 h, 1 μM: 0.0995 ± 0.0131
